Drawing on the supplement of paper PMC10307832, this text covers relative viability for 6 cell lines.

Holding throughout (assay): relative viability (nuclei count vs DMSO), 5 days (fraction); higher = more cells survive
Compound in the assay “Masitinib + Vorinostat”: Cc1ccc(NC(=O)c2ccc(CN3CCN(C)CC3)cc2)cc1Nc1nc(-c2cccnc2)cs1 [Masitinib] + O=C(CCCCCCC(=O)Nc1ccccc1)NO [Vorinostat] (partner 1 µM)
The procedure, abridged: (§1)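 The day after seeding in 1536-well plates, lung cancer cell lines were treated by pin tool with a single drug, or with a fixed anchor-drug dose together with five library-drug doses (not always all listed) in √10 steps. After 5 days, a combined fix-and-stain solution (final 0.05% Triton X-100, 1% formaldehyde, 1 ug/ml Hoechst) was added. Nuclei counted on 4× images gave relative viability as treated counts over vehicle counts, reported as the median of duplicate plates.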

Compound in assay [1]: CC1=CC(=CC=C1)NC2=NC(=CS2)C3=CC=NC=C3 + CC(=O)Nc1cccc(-n2c(=O)n(C3CC3)c(=O)c3c(Nc4ccc(I)cc4F)n(C)c(=O)c(C)c32)c1 [Trametinib] (partner 0.02 µM)
Summed up: as §1

Compound in assay [2]: CC1=CC(=CC=C1)NC2=NC(=CS2)C3=CC=NC=C3 + N=C(N)NC(=N)NCCc1ccccc1 [Phenformin] (partner 250 µM)
The procedure, abridged: as §1

Compound in assay [3]: CC1=CC(=CC=C1)NC2=NC(=CS2)C3=CC=NC=C3 + Cc1nc(NC(=O)N2CCC[C@H]2C(N)=O)sc1-c1ccnc(C(C)(C)C(F)(F)F)c1 [Alpelisib] (partner 2 µM)
Summed up: as §1

PC-3 [JPC-3]: the relative viability was 0.753 with Masitinib + Vorinostat (first compound 0.01 µM); 0.554 with Masitinib + Vorinostat (first compound 0.03162 µM); 0.779 with Masitinib + Vorinostat (first compound 0.1 µM); 0.748 with Masitinib + Vorinostat (first compound 0.3162 µM); 0.667 with Masitinib + Vorinostat (first compound 1 µM); 0.602 in assay [1] (first compound 0.08 µM). Besides, the relative viability was 0.658 in assay [1] (first compound 0.8 µM); 0.606 in assay [1] (first compound 2.53 µM); 0.572 in assay [1] (first compound 8 µM); 0.426 in assay [2] (first compound 0.08 µM); 0.451 in assay [2] (first compound 0.253 µM); 0.461 in assay [2] (first compound 0.8 µM). In addition, the relative viability turned out to be 0.486 in assay [2] (first compound 2.53 µM); 0.498 in assay [2] (first compound 8 µM); 0.95 in assay [3] (first compound 0.08 µM); 0.939 in assay [3] (first compound 0.253 µM); 0.845 in assay [3] (first compound 0.8 µM); 0.875 in assay [3] (first compound 2.53 µM). The relative viability in assay [3] (first compound 8 µM) stood at 0.84.
PC-14: the relative viability in the assay with Masitinib + Vorinostat (first compound 0.01 µM) turned out to be 0.716; with Masitinib + Vorinostat (first compound 0.03162 µM), 0.79; with Masitinib + Vorinostat (first compound 0.1 µM) it was 0.767; with Masitinib + Vorinostat (first compound 0.3162 µM), 0.691; with Masitinib + Vorinostat (first compound 1 µM) it was 0.865; in assay [1] (first compound 0.08 µM), 0.591. For the same cell line, the relative viability was found to be 0.747 in assay [1] (first compound 0.253 µM); 0.629 in assay [1] (first compound 0.8 µM); 0.647 in assay [1] (first compound 2.53 µM); 0.36 in assay [1] (first compound 8 µM); 0.47 in assay [2] (first compound 0.08 µM); 0.457 in assay [2] (first compound 0.253 µM). Also, the relative viability in assay [2] (first compound 0.8 µM) came out at 0.601; in assay [2] (first compound 2.53 µM), 0.521; in assay [2] (first compound 8 µM), 0.502; in assay [3] (first compound 0.08 µM) it was 0.942; in assay [3] (first compound 0.253 µM), 0.988; in assay [3] (first compound 0.8 µM), 0.851. In addition, the relative viability is 0.989 in assay [3] (first compound 2.53 µM) and 0.94 in assay [3] (first compound 8 µM).
RERF-LC-KJ: the relative viability is 0.587 in the assay with Masitinib + Vorinostat (first compound 0.01 µM); 0.783 in the assay with Masitinib + Vorinostat (first compound 0.03162 µM); 0.752 in the assay with Masitinib + Vorinostat (first compound 0.1 µM); 0.541 in the assay with Masitinib + Vorinostat (first compound 0.3162 µM); 0.646 in the assay with Masitinib + Vorinostat (first compound 1 µM); 0.953 in assay [1] (first compound 0.08 µM). Also, the relative viability was determined as 0.734 in assay [1] (first compound 0.253 µM); 0.735 in assay [1] (first compound 0.8 µM); 0.703 in assay [1] (first compound 2.53 µM); 0.645 in assay [1] (first compound 8 µM); 0.449 in assay [2] (first compound 0.08 µM); 0.403 in assay [2] (first compound 0.253 µM). Moreover, the relative viability in assay [2] (first compound 0.8 µM) was found to be 0.373; in assay [2] (first compound 2.53 µM) it was 0.384; in assay [2] (first compound 8 µM), 0.363; in assay [3] (first compound 0.08 µM) it was 1.01; in assay [3] (first compound 0.253 µM), 0.83; in assay [3] (first compound 0.8 µM) it was 0.773. Moreover, the relative viability came out at 0.715 in assay [3] (first compound 2.53 µM) and 0.654 in assay [3] (first compound 8 µM).
In the case of SK-LU-1, the relative viability in the assay with Masitinib + Vorinostat (first compound 0.01 µM) was found to be 0.779; with Masitinib + Vorinostat (first compound 0.03162 µM) it was 0.844; with Masitinib + Vorinostat (first compound 0.1 µM), 0.744; with Masitinib + Vorinostat (first compound 0.3162 µM), 0.926; in the assay with Masitinib + Vorinostat (first compound 1 µM) it was 0.774; in assay [1] (first compound 0.08 µM), 0.479. Also, the relative viability stood at 0.492 in assay [1] (first compound 0.253 µM); 0.361 in assay [1] (first compound 0.8 µM); 0.568 in assay [1] (first compound 2.53 µM); 0.351 in assay [1] (first compound 8 µM); 0.452 in assay [2] (first compound 0.08 µM); 0.471 in assay [2] (first compound 0.253 µM). Further, the relative viability amounted to 0.731 in assay [2] (first compound 2.53 µM); 0.63 in assay [2] (first compound 8 µM); 0.955 in assay [3] (first compound 0.08 µM); 0.934 in assay [3] (first compound 0.253 µM); 0.617 in assay [3] (first compound 0.8 µM); 0.992 in assay [3] (first compound 2.53 µM). The relative viability in assay [3] (first compound 8 µM) turned out to be 0.852.
Regarding SK-MES-1, the relative viability in the assay with Masitinib + Vorinostat (first compound 0.01 µM) turned out to be 0.876; with Masitinib + Vorinostat (first compound 0.03162 µM), 1.15; in the assay with Masitinib + Vorinostat (first compound 0.1 µM), 1.03; with Masitinib + Vorinostat (first compound 0.3162 µM), 0.984; with Masitinib + Vorinostat (first compound 1 µM), 1.07; in assay [1] (first compound 0.08 µM) it was 0.477. The relative viability in assay [1] (first compound 0.253 µM) is 0.5; in assay [1] (first compound 0.8 µM), 0.457; in assay [1] (first compound 2.53 µM), 0.571; in assay [1] (first compound 8 µM), 0.423; in assay [2] (first compound 0.08 µM), 0.626; in assay [2] (first compound 0.253 µM) it was 0.565. The relative viability in assay [2] (first compound 0.8 µM) came out at 0.592; in assay [2] (first compound 2.53 µM), 0.656; in assay [2] (first compound 8 µM), 0.547; in assay [3] (first compound 0.08 µM) it was 0.626; in assay [3] (first compound 0.253 µM), 0.862; in assay [3] (first compound 0.8 µM), 0.893. The relative viability in assay [3] (first compound 2.53 µM) was determined as 0.853; in assay [3] (first compound 8 µM), 0.848.
As to SW 1573, the relative viability with Masitinib + Vorinostat (first compound 0.01 µM) amounted to 0.645; in the assay with Masitinib + Vorinostat (first compound 0.03162 µM), 0.763; in the assay with Masitinib + Vorinostat (first compound 0.1 µM) it was 0.929; with Masitinib + Vorinostat (first compound 0.3162 µM), 0.968; with Masitinib + Vorinostat (first compound 1 µM), 0.973; in assay [1] (first compound 0.08 µM), 0.596. Further, the relative viability in assay [1] (first compound 0.253 µM) turned out to be 0.585; in assay [1] (first compound 0.8 µM) it was 0.741; in assay [1] (first compound 2.53 µM) it was 0.696; in assay [1] (first compound 8 µM), 0.48; in assay [2] (first compound 0.08 µM), 0.316; in assay [2] (first compound 0.253 µM), 0.36. Besides, the relative viability is 0.352 in assay [2] (first compound 0.8 µM); 0.389 in assay [2] (first compound 2.53 µM); 0.399 in assay [2] (first compound 8 µM); 0.746 in assay [3] (first compound 0.08 µM); 0.744 in assay [3] (first compound 0.253 µM); 0.593 in assay [3] (first compound 0.8 µM). The relative viability in assay [3] (first compound 2.53 µM) stood at 0.732; in assay [3] (first compound 8 µM) it was 0.625.
